Data published in ChEMBL document CHEMBL1201862, “PubChem BioAssay data set” (2004).
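Briefly, cells in 96-well plates were exposed to five compound concentrations for 48 h, and endpoints were estimated by linear interpolation. Here, GI50 denotes the concentration required for 50% inhibition of growth.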 Activity calls are given as the source filed them. No stated cut-off is given here; in the data, active = GI50 up to about 1.1 µM and inactive = higher.

How the values were obtained:
Assay in all cases: NCI-60 cell line screen, 48 h
[1] = test system: SF-539
[2] = test system: SW-620
[3] = test system: SK-OV-3
[4] = test system: HT-29
[5] = test system: SK-MEL-2
[6] = test system: CAKI-1
[7] = test system: Malme-3M
[8] = test system: IGROV-1
[9] = test system: SK-MEL-5
[10] = test system: M14
[11] = test system: OVCAR-5
[12] = test system: OVCAR-4
[13] = test system: COLO 205
[14] = test system: HCC 2998
[15] = test system: TK-10
[16] = test system: NCI-H522
[17] = test system: EKVX
[18] = test system: SNB-75
[19] = test system: NCI-H226
[20] = test system: HOP-92

SMILES | GI50 [1] | GI50 [2] | GI50 [3] | GI50 [4] | GI50 [5] | GI50 [6] | GI50 [7] | GI50 [8] | GI50 [9] | GI50 [10] | GI50 [11] | GI50 [12] | GI50 [13] | GI50 [14] | GI50 [15] | GI50 [16] | GI50 [17] | GI50 [18] | GI50 [19] | GI50 [20]
O=S(O)CCCCSSCCCCS(=O)(=O)S | 98.6 µM (inactive) | 37.7 µM (inactive) | > 100 µM (inactive) | 38.6 µM (inactive) | 35.7 µM (inactive) | > 100 µM (inactive) | 17.6 µM (inactive) | > 100 µM (inactive) | 14.2 µM (inactive) | 15.7 µM (inactive) | > 100 µM (inactive) | 25.5 µM (inactive) | 48.5 µM (inactive) | > 100 µM (inactive) | 42.6 µM (inactive) | 19.3 µM (inactive) | 19.4 µM (inactive) | 10.9 µM (inactive) | – | –
COc1cc(C2C3=C(COC3=O)Oc3cc4c(cc32)OCO4)cc(OC)c1O (stereo unspecified) | < 0.01 µM (active) | 0.0124 µM (active) | < 0.012 µM (active) | < 0.0147 µM (active) | 0.0101 µM (active) | < 0.01 µM (active) | < 0.01 µM (active) | < 0.0121 µM (active) | < 0.01 µM (active) | < 0.0112 µM (active) | 0.0236 µM (active) | 8.24 µM (inactive) | < 0.0133 µM (active) | < 0.0209 µM (active) | 0.589 µM (active) | < 0.01 µM (active) | 0.0207 µM (active) | < 0.01 µM (active) | < 0.0118 µM (active) | –
CC(=O)N(C(=O)CC(=O)N1N=C(C)C(/N=N/c2cccc([N+](=O)[O-])c2)C1=O)c1ccc(Cl)cc1 (stereo unspecified) | > 10 µM (inactive) | > 10 µM (inactive) | > 10 µM (inactive) | > 10 µM (inactive) | – | > 10 µM (inactive) | > 10 µM (inactive) | > 10 µM (inactive) | > 10 µM (inactive) | > 10 µM (inactive) | > 10 µM (inactive) | > 10 µM (inactive) | > 10 µM (inactive) | > 10 µM (inactive) | > 10 µM (inactive) | > 10 µM (inactive) | – | > 10 µM (inactive) | – | > 10 µM (inactive)
O=C1CSc2cc([N+](=O)[O-])ccc2N1 | > 100 µM (inactive) | > 100 µM (inactive) | > 100 µM (inactive) | > 100 µM (inactive) | > 100 µM (inactive) | > 100 µM (inactive) | > 100 µM (inactive) | > 100 µM (inactive) | > 100 µM (inactive) | > 100 µM (inactive) | > 100 µM (inactive) | > 100 µM (inactive) | > 100 µM (inactive) | > 100 µM (inactive) | > 100 µM (inactive) | > 100 µM (inactive) | > 100 µM (inactive) | 22.1 µM (inactive) | > 100 µM (inactive) | –
CCOC(=O)c1nc2ccc(OC)cc2c2c1Cc1ccccc1-2 | 84.9 µM (inactive) | > 100 µM (inactive) | – | > 100 µM (inactive) | > 100 µM (inactive) | > 100 µM (inactive) | > 100 µM (inactive) | > 100 µM (inactive) | 42.8 µM (inactive) | > 100 µM (inactive) | > 100 µM (inactive) | 49.8 µM (inactive) | > 100 µM (inactive) | 87.1 µM (inactive) | > 100 µM (inactive) | 56.5 µM (inactive) | – | 81.5 µM (inactive) | > 100 µM (inactive) | –
C[C@H](C(=O)O)C(=O)NC(=O)N(Cc1ccccc1)N=O | > 100 µM (inactive) | > 100 µM (inactive) | > 100 µM (inactive) | > 100 µM (inactive) | > 100 µM (inactive) | > 100 µM (inactive) | > 100 µM (inactive) | > 100 µM (inactive) | > 100 µM (inactive) | > 100 µM (inactive) | > 100 µM (inactive) | > 100 µM (inactive) | > 100 µM (inactive) | > 100 µM (inactive) | > 100 µM (inactive) | – | > 100 µM (inactive) | 98.4 µM (inactive) | – | –
CN(C(=O)C12C3C4C1C1C2C3C41C(=O)C(C)(C)C)C(C)(C)C (stereo unspecified) | > 100 µM (inactive) | > 100 µM (inactive) | > 100 µM (inactive) | > 100 µM (inactive) | > 100 µM (inactive) | > 100 µM (inactive) | > 100 µM (inactive) | > 100 µM (inactive) | > 100 µM (inactive) | > 100 µM (inactive) | > 100 µM (inactive) | > 100 µM (inactive) | > 100 µM (inactive) | > 100 µM (inactive) | > 100 µM (inactive) | 22 µM (inactive) | > 100 µM (inactive) | 76 µM (inactive) | – | –
O=S(O)c1cc(Cl)cc(Cl)c1OCc1ccccc1 | > 100 µM (inactive) | – | > 100 µM (inactive) | > 100 µM (inactive) | > 100 µM (inactive) | – | > 100 µM (inactive) | – | – | > 100 µM (inactive) | > 100 µM (inactive) | > 100 µM (inactive) | – | > 100 µM (inactive) | > 100 µM (inactive) | > 100 µM (inactive) | > 100 µM (inactive) | > 100 µM (inactive) | – | –
COc1ccc2cc3[n+](cc2c1OC)CCc1cc2c(cc1-3)OCO2 [BERBERINE CHLORIDE] | 35.3 µM (inactive) | 40.6 µM (inactive) | 84.5 µM (inactive) | 31 µM (inactive) | 25.3 µM (inactive) | – | 6.68 µM (inactive) | 40.6 µM (inactive) | 4.95 µM (inactive) | 22.8 µM (inactive) | 58.3 µM (inactive) | – | – | – | > 100 µM (inactive) | – | – | 36.5 µM (inactive) | – | 36.7 µM (inactive)
O=S(O)c1cc(Cl)cc(Cl)c1O | > 100 µM (inactive) | – | > 100 µM (inactive) | > 100 µM (inactive) | > 100 µM (inactive) | – | > 100 µM (inactive) | – | – | > 100 µM (inactive) | > 100 µM (inactive) | > 100 µM (inactive) | – | > 100 µM (inactive) | > 100 µM (inactive) | > 100 µM (inactive) | > 100 µM (inactive) | 75.9 µM (inactive) | – | –
NC(CCOCCP(=O)(O)CCOCCC(N)C(=O)O)C(=O)O (stereo unspecified) | > 100 µM (inactive) | > 100 µM (inactive) | > 100 µM (inactive) | > 100 µM (inactive) | > 100 µM (inactive) | > 100 µM (inactive) | – | > 100 µM (inactive) | > 100 µM (inactive) | > 100 µM (inactive) | > 100 µM (inactive) | > 100 µM (inactive) | > 100 µM (inactive) | > 100 µM (inactive) | > 100 µM (inactive) | > 100 µM (inactive) | > 100 µM (inactive) | > 100 µM (inactive) | – | > 100 µM (inactive)
N#CC(C#N)C1CN2CCC1CC2 (stereo unspecified) | > 100 µM (inactive) | > 100 µM (inactive) | > 100 µM (inactive) | > 100 µM (inactive) | > 100 µM (inactive) | > 100 µM (inactive) | > 100 µM (inactive) | > 100 µM (inactive) | > 100 µM (inactive) | > 100 µM (inactive) | > 100 µM (inactive) | > 100 µM (inactive) | > 100 µM (inactive) | > 100 µM (inactive) | > 100 µM (inactive) | > 100 µM (inactive) | > 100 µM (inactive) | > 100 µM (inactive) | > 100 µM (inactive) | –
